# pIC50: −log10 of the molar value. Where “and” joins values, the source holds several entries; their conditions need not be identical. Identical values can stand only once. Entries after “also recorded” stand apart in the source; their conditions may differ. Like-named read-outs stand apart in the source and are kept apart here.
# Key:
# [1] = target: T1, Kir6.1/SUR2B (Homo sapiens, UniProt O60706); assay: Thallium flux activation dose-response without channel pre-activation; assay type: cell-based; settings: no channel pre-activation; doses up to 30 µM
# T1 construct: expressed in transfected cells; Kir6.1 tetracycline-inducible, SUR2B constitutive
# T1 sequence (O60706 1-1549 isoform O60706-2, species assumed): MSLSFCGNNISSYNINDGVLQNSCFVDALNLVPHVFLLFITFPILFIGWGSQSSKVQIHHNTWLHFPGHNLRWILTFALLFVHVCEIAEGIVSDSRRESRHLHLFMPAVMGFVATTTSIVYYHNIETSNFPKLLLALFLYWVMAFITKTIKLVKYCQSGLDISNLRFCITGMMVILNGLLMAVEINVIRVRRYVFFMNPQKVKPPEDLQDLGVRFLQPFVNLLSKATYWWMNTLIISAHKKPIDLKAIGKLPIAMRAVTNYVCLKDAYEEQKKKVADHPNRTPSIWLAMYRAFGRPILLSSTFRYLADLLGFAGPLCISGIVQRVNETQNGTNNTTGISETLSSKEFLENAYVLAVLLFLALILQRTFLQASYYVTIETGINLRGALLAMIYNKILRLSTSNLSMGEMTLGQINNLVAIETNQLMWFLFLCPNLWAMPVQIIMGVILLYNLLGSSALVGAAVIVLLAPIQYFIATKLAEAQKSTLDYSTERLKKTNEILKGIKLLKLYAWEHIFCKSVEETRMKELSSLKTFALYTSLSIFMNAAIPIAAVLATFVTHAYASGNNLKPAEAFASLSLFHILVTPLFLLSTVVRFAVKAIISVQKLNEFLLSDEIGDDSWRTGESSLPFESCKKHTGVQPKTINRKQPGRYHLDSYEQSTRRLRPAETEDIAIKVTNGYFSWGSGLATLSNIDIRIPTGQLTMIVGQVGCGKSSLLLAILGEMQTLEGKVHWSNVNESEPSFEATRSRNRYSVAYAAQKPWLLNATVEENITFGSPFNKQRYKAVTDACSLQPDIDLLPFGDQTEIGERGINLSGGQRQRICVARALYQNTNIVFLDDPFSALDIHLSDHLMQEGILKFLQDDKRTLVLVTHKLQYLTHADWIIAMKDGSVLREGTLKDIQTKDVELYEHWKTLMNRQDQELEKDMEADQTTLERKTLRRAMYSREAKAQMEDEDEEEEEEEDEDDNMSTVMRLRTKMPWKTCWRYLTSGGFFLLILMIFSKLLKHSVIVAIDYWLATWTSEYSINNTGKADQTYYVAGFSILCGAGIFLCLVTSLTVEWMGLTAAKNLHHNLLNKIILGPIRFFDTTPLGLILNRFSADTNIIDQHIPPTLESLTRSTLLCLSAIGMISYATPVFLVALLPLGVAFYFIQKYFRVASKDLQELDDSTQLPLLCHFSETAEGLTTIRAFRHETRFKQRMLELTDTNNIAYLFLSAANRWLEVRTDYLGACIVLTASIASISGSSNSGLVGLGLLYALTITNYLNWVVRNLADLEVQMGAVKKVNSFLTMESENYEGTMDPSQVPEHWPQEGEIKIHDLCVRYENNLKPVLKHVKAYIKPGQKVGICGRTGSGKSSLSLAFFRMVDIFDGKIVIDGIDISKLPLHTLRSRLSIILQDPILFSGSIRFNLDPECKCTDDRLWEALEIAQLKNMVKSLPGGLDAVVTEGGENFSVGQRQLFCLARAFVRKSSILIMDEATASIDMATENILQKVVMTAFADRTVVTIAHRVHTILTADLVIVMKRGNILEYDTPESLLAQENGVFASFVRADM
# T1 sequence (Q15842 whole entry partner, species assumed): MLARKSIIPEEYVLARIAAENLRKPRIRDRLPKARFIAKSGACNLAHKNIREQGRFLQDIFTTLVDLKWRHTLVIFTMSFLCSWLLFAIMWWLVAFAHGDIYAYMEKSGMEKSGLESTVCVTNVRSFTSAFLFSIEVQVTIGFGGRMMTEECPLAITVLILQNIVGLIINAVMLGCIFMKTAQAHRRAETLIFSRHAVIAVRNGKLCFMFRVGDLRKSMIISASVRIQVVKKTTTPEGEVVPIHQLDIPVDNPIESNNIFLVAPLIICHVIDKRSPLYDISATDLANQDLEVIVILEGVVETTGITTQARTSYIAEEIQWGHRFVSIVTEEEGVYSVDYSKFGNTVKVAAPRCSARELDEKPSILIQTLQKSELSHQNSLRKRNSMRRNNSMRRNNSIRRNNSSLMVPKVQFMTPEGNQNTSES
# Procedure: (§1) Thallium flux assays were conducted using the established methods. Stably transfected T-REx-HEK-293 cells expressing Kir6.2/SUR1 or Kir6.1/SUR2B were cultured overnight in polyamine-coated plates (black-walled, clear-bottomed; BD, Bedford, MA) at a density of 20,000 cells in 20 µl per well of cell culture media. The expression of Kir6.2/SUR1 or Kir6.1/SUR2B channels was induced by treating cells with 1 µg/ml tetracycline overnight. The following day, cells were rinsed with an assay buffer (Hanks’ Balanced Salt Solution supplied with 20 mM HEPES), loaded with the thallium-sensor dye Brilliant Thallos-AM AM (Ion Bioscience, San Marcos, TX) for 1 h, and then washed again with assay buffer to remove unincorporated dye. The cell plate was subsequently placed in a Panoptic Kinetic Imaging Plate Reader (Wavefront Bioscience, Franklin, TN) and imaged at a frequency of 1 Hz using 482/35 nm (excitation) and 536/40 nm (emission) filter sets. Kir6.1/SUR2B channels were activated with 10 µM pinacidil, whereas Kir6.1/SUR1 was activated with 30 µM VU0071063 [34]. To activate KATP channels independent of activators with ATP-depletion method, cells were treated with a cocktail of metabolic inhibitors (2.5 mM sodium cyanide and 20 mM 2-deoxy glucose) for 25 min before imagine. Control and test compounds diluted freshly from DMSO stocks into assay buffer were added to wells for four minutes before adding 0.5 mM chloride-free thallium stimulus buffer (Ion Bioscience) to initiate thallium flux through the expressed KATP channels. Thallium flux was recorded from all 384-wells for 2 min before terminating the experiment. […] Selectivity assays against other Kir channels were performed as described previously.
# (§2) We therefore systematically explored this possibility in dose–response experiments against Kir6.2/SUR1 in the absence of channel pre-activation. Kir6.1/SUR2B was also evaluated for comparison.
# (§3) Figure 6. Paradoxical activation of Kir6.2/SUR1. […] Fluorescence intensity at each dose was normalized to that in the absence of drug. […] (b) Activities of indicated compounds at 30 μM toward Kir6.1/SUR2B normalized to that of 30 μM pinacidil. […] (d) Activities of indicated compounds at 30 μM toward Kir6.2/SUR1 normalized to that of 30 μM VU0071063.
# [2] = target: T1, Kir6.1/SUR2B; assay: Quantitative thallium flux assay, inhibition, stably transfected T-REx-HEK293 cells; assay type: cell-based
# [3] = target: T2, Kir3.1/3.2 (Homo sapiens, UniProt P48051+P48549); set-up: method as in PMID 29895592; settings: cited from earlier work
# T2 construct: expressed in transfected cells
# T2 sequence (P48549 1-501): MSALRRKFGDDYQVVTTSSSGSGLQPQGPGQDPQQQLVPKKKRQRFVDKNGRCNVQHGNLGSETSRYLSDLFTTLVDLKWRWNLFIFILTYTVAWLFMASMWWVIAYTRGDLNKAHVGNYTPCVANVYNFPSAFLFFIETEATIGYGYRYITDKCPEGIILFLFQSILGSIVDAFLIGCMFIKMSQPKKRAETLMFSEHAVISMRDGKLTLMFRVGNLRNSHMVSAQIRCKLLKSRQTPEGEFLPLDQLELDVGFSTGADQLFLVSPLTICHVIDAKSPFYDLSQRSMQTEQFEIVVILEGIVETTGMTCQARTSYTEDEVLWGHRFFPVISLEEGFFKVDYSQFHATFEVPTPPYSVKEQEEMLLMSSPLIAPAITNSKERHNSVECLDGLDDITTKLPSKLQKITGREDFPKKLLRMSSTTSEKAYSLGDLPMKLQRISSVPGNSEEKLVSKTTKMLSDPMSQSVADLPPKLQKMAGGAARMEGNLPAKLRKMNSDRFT
# T2 sequence (P48051 1-423): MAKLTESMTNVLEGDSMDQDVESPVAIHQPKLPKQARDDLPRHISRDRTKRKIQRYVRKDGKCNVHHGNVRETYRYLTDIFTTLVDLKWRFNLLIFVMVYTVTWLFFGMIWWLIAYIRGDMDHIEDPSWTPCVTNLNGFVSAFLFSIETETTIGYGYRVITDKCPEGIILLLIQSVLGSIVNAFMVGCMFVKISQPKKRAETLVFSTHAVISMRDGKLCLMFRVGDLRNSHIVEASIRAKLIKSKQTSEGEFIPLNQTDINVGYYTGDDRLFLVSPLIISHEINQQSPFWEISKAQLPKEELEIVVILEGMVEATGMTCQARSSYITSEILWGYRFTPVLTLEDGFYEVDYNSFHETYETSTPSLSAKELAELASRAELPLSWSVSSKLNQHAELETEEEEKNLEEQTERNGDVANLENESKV
# [4] = target: T3, Kir4.2 (Homo sapiens, UniProt Q99712); set-up: method as in PMID 29895592; settings: cited from earlier work
# T3 construct: expressed in transfected cells
# T3 sequence (Q99712 1-375): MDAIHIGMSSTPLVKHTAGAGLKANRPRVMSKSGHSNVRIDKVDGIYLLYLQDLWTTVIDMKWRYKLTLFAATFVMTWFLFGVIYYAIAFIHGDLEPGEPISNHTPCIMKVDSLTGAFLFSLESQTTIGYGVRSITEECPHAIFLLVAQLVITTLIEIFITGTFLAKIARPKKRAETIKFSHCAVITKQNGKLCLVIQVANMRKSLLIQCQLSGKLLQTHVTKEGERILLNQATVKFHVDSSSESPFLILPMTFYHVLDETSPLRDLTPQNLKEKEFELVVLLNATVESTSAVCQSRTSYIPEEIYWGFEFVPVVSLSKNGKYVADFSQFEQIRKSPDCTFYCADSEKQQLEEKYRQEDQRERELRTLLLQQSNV
# [5] = target: T4, Kir3.1/3.4 (Homo sapiens, UniProt P48544+P48549); set-up: method as in PMID 29895592; settings: cited from earlier work
# T4 construct: expressed in transfected cells
# T4 sequence (P48549 1-501): T2 sequence (P48549 1-501)
# T4 sequence (P48544 1-419): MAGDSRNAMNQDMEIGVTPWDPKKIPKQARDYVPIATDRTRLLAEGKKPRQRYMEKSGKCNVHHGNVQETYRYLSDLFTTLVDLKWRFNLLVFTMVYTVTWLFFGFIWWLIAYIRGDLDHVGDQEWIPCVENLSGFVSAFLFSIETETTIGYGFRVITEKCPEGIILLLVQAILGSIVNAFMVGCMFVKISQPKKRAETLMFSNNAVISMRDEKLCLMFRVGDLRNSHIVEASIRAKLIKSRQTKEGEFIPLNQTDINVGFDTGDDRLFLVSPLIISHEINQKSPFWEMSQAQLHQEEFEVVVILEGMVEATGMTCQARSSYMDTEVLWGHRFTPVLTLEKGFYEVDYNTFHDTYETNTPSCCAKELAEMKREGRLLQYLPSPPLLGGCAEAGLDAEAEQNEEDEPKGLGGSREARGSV
# [6] = target: T5, Kir4.1 (Homo sapiens, UniProt P78508); set-up: method as in PMID 29895592; settings: cited from earlier work
# T5 construct: expressed in transfected cells
# T5 sequence (P78508 1-379): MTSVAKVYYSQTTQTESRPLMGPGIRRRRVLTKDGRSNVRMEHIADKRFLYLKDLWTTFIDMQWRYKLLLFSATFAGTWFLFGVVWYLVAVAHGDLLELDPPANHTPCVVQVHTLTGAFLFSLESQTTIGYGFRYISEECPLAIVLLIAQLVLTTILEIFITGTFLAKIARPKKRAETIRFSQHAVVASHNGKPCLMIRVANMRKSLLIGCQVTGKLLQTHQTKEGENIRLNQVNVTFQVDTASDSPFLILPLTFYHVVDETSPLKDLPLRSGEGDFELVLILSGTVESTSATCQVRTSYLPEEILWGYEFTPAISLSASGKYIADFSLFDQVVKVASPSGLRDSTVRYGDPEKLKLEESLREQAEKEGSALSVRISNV
# [7] = target: T6, Kir6.2/SUR1 (Homo sapiens, UniProt Q09428); assay: Quantitative thallium flux assay, inhibition, stably transfected T-REx-HEK293 cells; assay type: cell-based
# T6 sequence (Q09428 whole entry, species assumed): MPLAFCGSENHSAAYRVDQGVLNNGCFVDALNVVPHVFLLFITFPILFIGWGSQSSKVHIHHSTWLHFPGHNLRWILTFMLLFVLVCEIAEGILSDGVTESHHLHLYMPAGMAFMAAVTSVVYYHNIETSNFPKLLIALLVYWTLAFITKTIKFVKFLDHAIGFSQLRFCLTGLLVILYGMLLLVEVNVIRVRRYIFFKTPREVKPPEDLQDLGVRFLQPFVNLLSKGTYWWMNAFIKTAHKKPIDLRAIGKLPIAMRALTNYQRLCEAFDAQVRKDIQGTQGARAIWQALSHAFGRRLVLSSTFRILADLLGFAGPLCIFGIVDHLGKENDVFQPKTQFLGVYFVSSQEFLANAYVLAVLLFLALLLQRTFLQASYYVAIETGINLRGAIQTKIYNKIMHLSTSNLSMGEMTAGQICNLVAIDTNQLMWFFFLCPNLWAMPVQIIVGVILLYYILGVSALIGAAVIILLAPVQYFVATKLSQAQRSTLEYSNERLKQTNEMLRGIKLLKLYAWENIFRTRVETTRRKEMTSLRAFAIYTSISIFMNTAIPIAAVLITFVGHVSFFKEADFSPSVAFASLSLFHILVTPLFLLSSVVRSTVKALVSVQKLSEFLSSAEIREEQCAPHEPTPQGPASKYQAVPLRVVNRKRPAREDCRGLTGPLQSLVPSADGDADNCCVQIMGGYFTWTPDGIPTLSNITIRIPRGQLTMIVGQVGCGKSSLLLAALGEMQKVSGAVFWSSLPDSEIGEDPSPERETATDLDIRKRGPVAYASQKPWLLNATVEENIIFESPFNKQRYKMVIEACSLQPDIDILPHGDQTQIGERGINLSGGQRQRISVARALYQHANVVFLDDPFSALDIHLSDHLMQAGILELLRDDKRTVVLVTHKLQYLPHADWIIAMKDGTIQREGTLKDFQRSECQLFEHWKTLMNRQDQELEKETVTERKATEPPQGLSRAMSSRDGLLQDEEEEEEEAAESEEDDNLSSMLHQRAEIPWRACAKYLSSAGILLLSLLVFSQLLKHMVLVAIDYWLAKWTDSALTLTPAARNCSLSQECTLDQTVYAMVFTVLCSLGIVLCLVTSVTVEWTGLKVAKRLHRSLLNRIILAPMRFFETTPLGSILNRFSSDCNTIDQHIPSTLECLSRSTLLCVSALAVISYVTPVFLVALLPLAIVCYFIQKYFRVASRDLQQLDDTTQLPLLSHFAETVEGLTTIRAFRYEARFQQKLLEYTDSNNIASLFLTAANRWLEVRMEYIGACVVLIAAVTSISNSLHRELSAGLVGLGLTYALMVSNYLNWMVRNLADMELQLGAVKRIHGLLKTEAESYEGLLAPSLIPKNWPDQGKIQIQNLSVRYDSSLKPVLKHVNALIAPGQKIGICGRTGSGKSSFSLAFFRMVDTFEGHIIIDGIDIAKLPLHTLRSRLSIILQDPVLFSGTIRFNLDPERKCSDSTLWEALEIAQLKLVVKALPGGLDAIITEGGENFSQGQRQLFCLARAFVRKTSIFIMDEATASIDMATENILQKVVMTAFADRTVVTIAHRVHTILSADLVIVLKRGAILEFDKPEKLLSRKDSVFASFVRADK
# T6 sequence (Q14654 whole entry partner, species assumed): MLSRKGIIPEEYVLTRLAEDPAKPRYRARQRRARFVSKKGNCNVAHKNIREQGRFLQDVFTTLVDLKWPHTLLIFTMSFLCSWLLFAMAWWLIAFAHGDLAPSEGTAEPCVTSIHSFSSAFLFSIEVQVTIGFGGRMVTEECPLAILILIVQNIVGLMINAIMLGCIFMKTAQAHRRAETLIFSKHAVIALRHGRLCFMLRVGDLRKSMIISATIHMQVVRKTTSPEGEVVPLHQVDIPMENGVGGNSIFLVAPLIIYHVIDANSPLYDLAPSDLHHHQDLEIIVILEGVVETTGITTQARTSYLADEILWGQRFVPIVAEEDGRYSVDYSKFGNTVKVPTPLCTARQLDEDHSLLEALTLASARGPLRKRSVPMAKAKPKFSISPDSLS
# Procedure: Briefly, T-Rex-HEK293 cells underwent co-transfection with pcDNA5/TO-Kir6.1 or pcDNA5/TO-Kir6.2 (inducible expression) and pcDNA3.1-SUR2B or pcDNA3.1-SUR1 (constitutive expression) using Lipofectamine LTX following the manufacturer’s instructions and were then subjected to selection with antibiotics. Monoclonal cell lines were established through limiting dilution and characterization in thallium flux assays described below. […] KATP channel selectivity assays were performed in HEK293 cells transiently transfected with the indicated subunit using Lipofectamine LTX. The cells were incubated for 48 h after transfection before performing thallium flux assays.
# as §1, with “The cell plate was subsequently placed in a Panoptic Kinetic Imaging Plate Reader (Wavefront Bioscience, Franklin, TN) and imaged at a frequency of 1 Hz using 482/35 nm (excitation) and 536/40 nm (emission) filter sets. Kir6.1/SUR2B channels were activated with 10 µM pinacidil, whereas Kir6.1/SUR1 was activated with 30 µM VU0071063 [34].” left out
# The kinetic fluorescence measurements (F) from each well were normalized to the initial reading (F0), producing static ratios (F/F0) that adjust for variations in cell count and dye uptake. […] The response (maxmin2) was determined by subtracting the min value from the max value. Percent inhibition was calculated by normalizing each well’s response to the positive and negative controls. Concentration–response curves were fitted using a single-site, four-parameter logistic function in Prism version 4.0 (GraphPad Software Inc., San Diego, CA) to calculate the half-maximal inhibitory concentration (IC50). Statistical comparisons of IC50 values were performed using an extra sum-of-squares F test and the Mann–Whitney test. A p-value of less than 0.05 was considered statistically significant.
# [8] = target: T6, Kir6.2/SUR1; set-up: method as in PMID 38302135; settings: previously reported; cited from earlier work
# [9] = test system: isolated mouse ductus arteriosus vessels; set-up: method as in PMID 38302135; settings: compared with glibenclamide; cited from earlier work
# [10] = target: T1, Kir6.1/SUR2B; set-up: method as in PMID 38302135; settings: previously reported; cited from earlier work
# [11] = target: T6, Kir6.2/SUR1; assay: Thallium flux activation dose-response without channel pre-activation; assay type: cell-based; settings: no channel pre-activation; doses up to 30 µM
# Procedure: as §1, §2, §3
# [12] = ATP depletion with sodium cyanide and 2-deoxy-glucose, read-out: IC50 Kir6.1/SUR2B, ATP depletion
# [13] = channels activated with 10 µM pinacidil, read-out: IC50 Kir6.1/SUR2B, pinacidil activation
# [14] = thallium flux, ATP depletion with sodium cyanide and 2-deoxy-glucose
Structure (SMILES),Activation of Kir6.1/SUR2B [1],"pIC50 [2, 12]","pIC50 [2, 13]",Efficacy of inhibition of Kir3.1/3.2 ([3]; at 30 µM),pIC50 [3],pIC50 [4],Efficacy of inhibition of Kir3.1/3.4 ([5]; at 30 µM),pIC50 [5],Efficacy of inhibition of Kir4.1 ([6]; at 30 µM),pIC50 [6],"Effect on Kir6.2/SUR1 channel activity ([7]; VU0071063 activation or ATP depletion, full range of doses tested (up to 30 µM))","pIC50 [7, 14]","IC50 Kir6.2/SUR1, ATP depletion [7, 14]","IC50 Kir6.2/SUR1, VU0071063 activation ([7]; thallium flux, in the presence of 10 uM VU0071063)",Activity toward Kir6.2/SUR1 [8],Potency for contraction of ductus arteriosus vessels [9],pIC50 [10],Activation of Kir6.2/SUR1 [11]
"COc1ccc(Cl)cc1C(=O)NCCc1ccc(S(=O)(=O)NC(=O)NC2CCCCC2)cc1 [Glibenclamide, glibenclamide, reference compound]",failed to activate,7.29 and 7.30,7.48 and 7.52,,,,,,,,,,,,,,,
CC(C)c1ccc(OCC(=O)NC2CC(C)(C)NC(C)(C)C2)c(Br)c1 [VU0134992],,,,greater than 90%,5.60,5.09,greater than 90%,5.51,greater than 90%,5.28,,,,,,,,
"Cc1nc(-c2cccs2)sc1CNC(=O)Nc1cccs1 [VU0542270, reference compound]",failed to activate,7.51 and 7.52,7.00,,,,,,,,no effect,< 4.52,no fit,no fit,no apparent activity,same potency as glibenclamide,~7.00,failed to activate; also recorded: did not

# — paper PMC11418212, “Characterization of four structurally diverse inhibitors of SUR2-containing KATP channels” (Channels, 2024)
